Test results reported in patent publication US11034662B2, “Substituted phenothiazines as mitochondrial agents” (ARIZONA BOARD OF REGENTS ON BEHALF OF ARIZONA STATE …, priority 2015, dated 2021).

Columns and labels:
frataxin = assay: Frataxin protein expression (Western blot) in FRDA lymphocytes; assay type: cell-based, human; conditions: for level of frataxin (western blot): FRDA lymphocytes, FIG. 9
Experimental: Human mitochondrial disease cell line, Friedreich's ataxia lymphocytes (GM15850) was obtained from Coriell Cell Repositories (Camden, N.J.). Lymphocytes were cultured in RPMI-1640 medium (Gibco, Life Technologies, Grand Island, N.Y.) with 15% fetal calf serum, 2 mM glutamine (HyClone, South Logan, Utah) and 1% penicillin-streptomycin antibiotic supplement (Cellgro, Manassas, Va.). Cells were passaged every other day to maintain them in log phase growth and kept at a nominal concentration of 5-10×10^5 cell/mL. A CoQ10 deficient lymphocyte cell line (GM17932) was obtained from Coriell Cell Repositories. A nutrient sensitized screening strategy to identify methylene blue analogues that function within the mitochondrial respiratory chain was used by growing the CoQ10-deficient or FRDA lymphocytes in galactose containing media to force energy production predominantly through oxidative phosphorylation rather than glycolysis.^1-4 The lymphocytes were cultured in RPMI 1640 glucose free medium (Gibco, Grand Island, N.Y.) supplemented with 25 mM galactose, 2 mM glutamine and 1% penicillin-streptomycin, and 10% dialyzed fetal bovine serum (FBS) (<0.5 μg/mL) (Gemini Bio-Product, West Sacramento, Calif.).
Immortalized normal and FRDA lymphocyte cell lines were seeded at 500,000 cells per/mL (5 mL) in T-25 flask. Cultures were treated with the test compounds and incubated for 24 h. Cells were harvested by centrifugation, washed with saline buffer and then were lysed using 200 μL of lysis buffer (1% triton X-100, 0.1% SDS, Tris-HCl (50 Mm) pH 7.4, 150 mM NaCl, 0.5% sodium deoxycholate, 0.1 mM EDTA) with protease inhibitors (protease cocktail inhibitors (Roche Applied Science) and 1 mM phenylmethylsulfonyl fluoride (Sigma), and incubated on ice for 30 min with periodical mixing. These samples were cleared of insoluble material by centrifugation at 20,000×g for 10 min at 4° C. Total protein concentration was measured by the BCA kit (Thermo Fisher Scientific). NuPAGE LDS Sample Buffer (4×) and NuPAGE Reducing Agent (10×) was added the lysate and they were denatured at 95° C. for 5 min, then equal amounts of lysates ([…]) were used for immunoblotting. Samples were resolved on a 4%-12% SDS-polyacrylamide Bis-Tris gels (Invitrogen) according to the manufacturer's recommendations and then proteins were transferred to nitrocellulose membranes. After blocking with Superblock-TBS (Thermo Fisher Scientific) for 1 hour to inhibit non-specific binding the blot was incubated with anti-frataxin monoclonal antibody (5 μg/mL) (18A5DB1) (Novex®) (Life technologies) overnight at 4° C. to detect endogenous frataxin in FRDA and normal lymphocytes. Following three 5-min washes with TBST, the blots were incubated with horseradish peroxidase-linked secondary […] antibody IgGs (1:10,000, Sigma, in Superblock-TBS) at room temperature for 1 hr. The blots were washed three times for 5 min with TBST, rinsed with deionized H2O, and developed with enhanced chemiluminescence (ECL) (BioRad Chemi-Doc) using West Pico Chemiluminescent Substrate (Pierce Biotechnology).

[1] = test system: bovine heart mitochondrial NADH oxidase activity (complexes I, III and IV); assay: NADH oxidase activity in bovine heart mitochondria; assay type: biochemical; conditions: complex I completely blocked by rotenone; FIG. 6
Experimental: The effect of the methylene blue analogues on the activities of complexes I, III and IV within the respiratory chain was evaluated using bovine heart mitochondria during the oxidation of their respective substrate (NADH) as described previously. Briefly, a small scale preparation of bovine heart mitochondria was prepared as described before (Smith, A. L (1967), Methods Enzymol. 10, 81). Bovine heart submitochondrial particles (SMPs) were prepared as described by Matsuno-Yagi and stored in a buffer containing 0.25 M sucrose and 10 mM Tris-HCl, pH 7.4, at −80° C. (Matsuno-Yagi, A.; Hatefi, Y. J. (1985) J. Biol. Chem. 260, 11424). SMPs were diluted to 0.5 mg/mL. Mitochondrial complexes I, III, and IV activity were assayed at 30 C and monitored spectrophotometrically using a Beckman Coulter DU-530 (340 nm, ε=6.22 mM^−1 cm^−1). NADH oxidase activity was determined in 50 mM Hepes buffer containing 5 mM MgCl2, pH 7.5, in a total volume of 2.5 mL. The final mitochondrial protein concentration was 30 μg/mL. The initial rates of NADH oxidation were calculated from the linear portion of the traces.

| Compound | level of frataxin (western blot) (frataxin; higher concentration) | level of frataxin (western blot) (frataxin; lower concentration) | effect on NADH oxidase activity: redirection of electron flow in the respiratory chain [1] | frataxin levels (frataxin; general statement, concentration not given) |
| --- | --- | --- | --- | --- |
| CN(C)c1ccc2nc3ccc(=[N+](C)C)cc-3sc2c1 [Methylene blue, 3,7-bis(dimethylamino)phenazathionium chloride, reference compound] | did not | slightly increased | – | – |
| CCCCCCCCCCCCCCCCCc1cc2nc3ccc(N(C)C)cc3sc-2cc1=[N+](C)C [compound 5, N-(7-(dimethylamino)-2-heptadecyl-3H-phenothiazin-3-ylidene)-N-methylmethan-aminium iodide] | – | – | able redirect electron flow in the respiratory chain | – |
| CCCCCCCCCCCCCCCN(CCCC)c1ccc2nc3ccc(=O)cc-3sc2c1 [compound 33, 7-(butyl(pentadecyl)amino)-3H-phenothiazin-3-one] | significantly increased | significantly increased | – | significantly increased |
